Data published in patent US7173004B2, “Macrocyclic isoquinoline peptide inhibitors of hepatitis C virus” (Bristol-Myers Squibb Company, priority 2003, dated 2007).

target: T1, HCV NS3/4A protease complex, BMS strain (genotype 1a) (UniProt P27958, C1454S/C1711G, species not given/STRAIN_BMS); experiment: Recombinant HCV NS3/4A protease complex FRET peptide assay, BMS strain; type: biochemical; conditions: NS3/4A BMS strain; activity range symbols
T1 construct: b1001: DNA encoding the recombinant HCV NS3/4A protease complex (amino acids 1027 to 1711) ... a three-lysine solubilizing tail was added at the 3′-end of the NS4A coding region; fused on or other part: Three-lysine solubilising tail at the C-terminus of NS4A; A His tag is implied by the pET21b vector and Ni-NTA purification
How it was run: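 Recombinant NS3/4A (aa 1027–1711) from H77C, J4L6S or BMS strains, with C1454S and C1711G mutations and three-lysine tail, expressed in E. coli and Ni-NTA/gel-filtration purified to >90%. Inhibition of cleavage of a FRET peptide substrate measured.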

SMILES | IC50
COc1ccc2c(OC3CC4C(=O)NC5(C(=O)NS(=O)(=O)C6CC6)CC5C=CCOCCCC(NC(=O)OC5CCCC5)C(=O)N4C3)nc(-c3ccccc3)cc2c1 (centres unmarked) [Compound 99] | < 50 nM
CC(C)(C)NC(=O)N[C@H]1CCCCC/C=C\[C@@H]2C[C@@]2(C(=O)NS(=O)(=O)C2CC2)NC(=O)[C@@H]2C[C@@H](Oc3nccc4ccccc34)CN2C1=O [Compound 126] | < 50 nM
CNc1ccc(-c2cc3cc(OC)ccc3c(OC3CC4C(=O)NC5(C(=O)NS(=O)(=O)C6CC6)CC5C=CCOCCCC(NC(=O)OC(C)(C)C)C(=O)N4C3)n2)cc1 (centres unmarked) [Compound 113] | < 50 nM
COc1ccc2c(O[C@@H]3C[C@H]4C(=O)N[C@]5(C(=O)NS(=O)(=O)C6CC6)C[C@H]5/C=C\CCCSC(C)(C)[C@H](NC(=O)OC(C)(C)C)C(=O)N4C3)nccc2c1 [Compound 80, (1S,4R,6S,14R,18R)-[7-cis-4-Cyclopropanesulfonylaminocarbonyl-13,13-dimethyl-18-(6-methoxyisoquinolin-1-yloxy)-2,15-dioxo-12-thia-3,16-diaza-tricyclo[14.3.0.0^4,6]nonadec-7-en-14-yl]carbamic acid, tert-butyl ester] | < 50 nM
COc1ccc2c(OC3CC4C(=O)NC5(C(=O)NS(=O)(=O)C6CC6)CC5C=CCCCOCC(NC(=O)OC(C)C)C(=O)N4C3)nccc2c1 (centres unmarked) [Compound 89] | < 50 nM
CCSC(=O)NC1CCCCCC=CC2CC2(C(=O)NS(=O)(=O)C2CC2)NC(=O)C2CC(Oc3nccc4ccccc34)CN2C1=O (centres unmarked) [Compound 118] | < 50 nM
COc1ccc2c(OC3CC4C(=O)NC5(C(=O)NS(=O)(=O)C6CC6)CC5C=CCCCOCC(NC(=O)NC5CCCC5)C(=O)N4C3)nccc2c1 (centres unmarked) [Compound 87] | < 50 nM
COc1ccc2c(OC3CC4C(=O)NC5(C(=O)NS(=O)(=O)C6CC6)CC5C=CCOCCCC(NC(=O)Nc5ccc(C#N)cc5)C(=O)N4C3)nc(-c3ccccc3)cc2c1 (centres unmarked) [Compound 105] | < 50 nM
CC(C)NC(=O)NC1CCCCCC=CC2CC2(C(=O)NS(=O)(=O)C2CC2)NC(=O)C2CC(Oc3nccc4ccccc34)CN2C1=O (centres unmarked) [Compound 128] | < 50 nM
COc1ccc2c(O[C@@H]3C[C@H]4C(=O)N[C@]5(C(=O)NS(=O)(=O)C6CC6)C[C@H]5/C=C\COCC[C@H](NC(=O)OC(C)(C)C)C(=O)N4C3)nccc2c1 [Compound 141, [(Z)-(1S,4R,13S,17R)-4-cyclopropanesulfonylaminocarbonyl-17-(6-methoxy-isoquinolin-1-yloxy)-2,14-dioxo-10-oxa-3,15-diaza-tricyclo[13.3.0.0^4,6]octadec-7-en-13-yl]-carbamic acid tert-butyl ester] | 50 to 500 nM
COc1ccc2c(OC3CC4C(=O)NC5(C(=O)NS(=O)(=O)C6CC6)CC5C=CCOCCCC(NC(=O)OCC(C)(C)C)C(=O)N4C3)nc(-c3ccccc3)cc2c1 (centres unmarked) [Compound 103] | < 50 nM
